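Five compound concentrations were applied to cells in 96-well plates for 48 hours; endpoints were derived by simple linear interpolation of the resulting dose-response curve. Definition used: TGI = concentration required for complete inhibition of growth.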
How the values were obtained:
Assay in all cases: NCI anticancer screen, dose series, 48 h
[1] = tested on: NCI-H23 lung
[2] = tested on: XF 498 CNS
[3] = tested on: SF-268 CNS
[4] = tested on: CAKI-1 renal
[5] = tested on: OVCAR-4 ovarian
[6] = tested on: U251 CNS
[7] = tested on: OVCAR-3 ovarian
[8] = tested on: NCI-H226 lung
[9] = tested on: M14 melanoma
[10] = tested on: UACC-62 melanoma
[11] = tested on: MCF7 breast
[12] = tested on: SN12C renal
[13] = tested on: SK-MEL-5 melanoma
[14] = tested on: KM12 colon
[15] = tested on: HOP-92 NSCLC
[16] = tested on: EKVX NSCLC
[17] = tested on: A549 NSCLC
[18] = tested on: A498 renal
[19] = tested on: SR leukemia
[20] = tested on: SF-295 CNS
[21] = tested on: MALME-3M melanoma
[22] = tested on: UACC-257 melanoma
[23] = tested on: ACHN renal
[24] = tested on: HCT-15 colon
[25] = tested on: SNB-78 CNS
[26] = tested on: OVCAR-8 ovarian
[27] = tested on: SNB-75 CNS
[28] = tested on: TK-10 renal
[29] = tested on: SK-MEL-28 melanoma
[30] = tested on: IGROV1 ovarian
[31] = tested on: DMS 273 small cell lung
[32] = tested on: BT-549 breast
[33] = tested on: COLO 205 colon
[34] = tested on: SNB-19 CNS
[35] = tested on: 786-0 renal
[36] = tested on: M19-MEL melanoma
[37] = tested on: LOX IMVI melanoma
[38] = tested on: SW-620 colon
[39] = tested on: MDA-MB-435
[40] = tested on: SK-OV-3 ovarian
[41] = tested on: T-47D breast
[42] = tested on: K-562 leukemia
[43] = tested on: HL-60(TB) leukemia
[44] = tested on: DU-145 prostate
[45] = tested on: OVCAR-5 ovarian
[46] = tested on: NCI/ADR-RES ovarian
[47] = tested on: RXF 393 renal
[48] = tested on: SK-MEL-2 melanoma
[49] = tested on: HT29 colon
[50] = tested on: NCI-H460 lung
[51] = tested on: HS 578T breast
[52] = tested on: CCRF-CEM leukemia
[53] = tested on: RPMI-8226 leukemia
[54] = tested on: UO-31 renal
[55] = tested on: HCT-116 colon
[56] = tested on: SF-539 CNS
[57] = tested on: MOLT-4 leukemia
[58] = tested on: DMS 114 small cell lung
[59] = tested on: HCC-2998 colon
[60] = tested on: LXFL 529 NSCLC
[61] = tested on: MDA-N
[62] = tested on: MDA-MB-231 breast
[63] = tested on: NCI-H522 lung
[64] = tested on: DLD-1 colon
[65] = tested on: HOP-62 NSCLC
[66] = tested on: PC-3 prostate
[67] = tested on: KM20L2 colon

Measured: TGI

CS(=O)(=O)C(C#N)c1nc2ccccc2nc1Cl (stereo unspecified)
> 66.5 µM: [28]
> 65.9 µM: [56]
> 27.1 µM: [13]
> 58.2 µM: [14]
not listed: [67]
> 100 µM: all other assays above

COc1ccc([C@@]2(O)c3c(ccc(O)c3OC)[C@H]2OC)c(OC)c1
75.9 µM: [58]
85.4 µM: [63]
not listed: [10] | [11] | [24] | [25] | [31] | [32] | [37] | [39] | [41] | [44] | [46] | [47] | [51] | [56] | [61] | [62] | [66]
> 100 µM: all other assays above

From PubChem BioAssay (NCI)
